Several values for one entry are separate records, joined by “and”; a condition that tells them apart may be missing. Equal entries are not always repeated.
Experiments:
Format in all cases: functional, Homo sapiens
Set-up in all cases: dose or concentration left out as unconfirmed
Colon cancer organoid [1] = assay: Identification of compartment-specific drug sensitivities in O06 CRC organoid-stroma F06 CAF co-cultures. Organoid is transduced with Lucferase2-P2A-EGFP lentivirus, fibroblast with Renilla-dsRed lentivirus. Dual-Glo Luciferase assay is used to report viability data.
Colon cancer organoid [2] = assay: Identification of compartment-specific drug sensitivities in O14 CRC organoid-stroma F14 CAF co-cultures. Organoid is transduced with Lucferase2-P2A-EGFP lentivirus, fibroblast with Renilla-dsRed lentivirus. Dual-Glo Luciferase assay is used to report viability data.
Colon cancer organoid [3] = assay: Identification of compartment-specific drug sensitivities in O20 CRC organoid-stroma F20 CAF co-cultures. Organoid is transduced with Lucferase2-P2A-EGFP lentivirus, fibroblast with Renilla-dsRed lentivirus. Dual-Glo Luciferase assay is used to report viability data.
[4] = Transduced with Lucferase2-P2A-EGFP lentivirus
[5] = Transduced with Renilla-dsRed lentivirus

| SMILES | Cell Viability (Colon cancer organoid [1]; [4]) | Cell Viability (Colon cancer organoid [1]; [5]) | Cell Viability (Colon cancer organoid [2]; [4]) | Cell Viability (Colon cancer organoid [2]; [5]) | Cell Viability (Colon cancer organoid [3]; [4]) | Cell Viability (Colon cancer organoid [3]; [5]) |
| --- | --- | --- | --- | --- | --- | --- |
| CC(C)(C)c1cc(NC(=O)Nc2ccc(-c3cn4c(n3)sc3cc(OCCN5CCOCC5)ccc34)cc2)no1 [QUIZARTINIB] | 26.1053% | 134.448% | 48.7226% | 98.8717% | 58.8072% | 111.29% |
| CC1(C)C(N)=Nc2cc(OCCCN3Cc4ccc(OCCc5cn(CC(=O)N6CCC(CCN7CCCC7)CC6)nn5)cc4C3)c(OCC3CC3)cc21 | 85.8179% | 109.54% | 112.775% | 105.217% | 95.5615% | 161.052% |
| Cc1sc2c(c1C)C(c1ccc(Cl)cc1)=N[C@@H](CC(=O)NCCCCCCCCNC(=O)COc1cccc3c1C(=O)N(C1CCC(=O)NC1=O)C3=O)c1nnc(C)n1-2 (some centres undefined) | 5.4511% | 19.3995% | 5.905% | 10.8389% | 2.01% | 74.9854% |
| CNC(=O)c1cc(C(=O)N[C@H]2[C@@H]3COC[C@@H]32)cc2c1O[C@@H](CF)[C@@H]2c1ccccc1 [GSK943] | 83.6271% | 130.888% | 96.5907% | 102.587% | 107.286% | 108.354% |
| CCOc1cn(-c2ccc(F)cc2C)nc1C(=O)Nc1ccc(Oc2ccnc3cc(OC)c(OC)cc23)c(F)c1 | 87.51% and 89.4828% | 84.5689% and 64.7371% | 83.4563% and 72.9507% | 89.3323% and 81.5085% | 229.393% and 192.525% | 78.4446% and 96.4847% |
| COc1ccccc1-c1cc(Nc2cccc(CS(N)(=O)=O)c2)ncn1 | 105.6% | 95.8866% | 188.969% | 77.1823% | 105.142% | 97.4583% |
| C[C@@]1(Cc2ccc(C#N)cc2)C(=O)N(c2cc(Cl)cc(Cl)c2)c2ncc(C(=O)NC3(c4nc(C5CCC5)no4)CC3)n21 [BI 9446] | 82.5213% | 98.3986% | 102.867% | 111.855% | 72.3076% | 136.535% |
| COc1cccc2c1c(O)c(C(=O)N(C)c1ccc(C(F)(F)F)cc1)c(=O)n2C [TASQUINIMOD] | 78.5663% | 130.265% | 112.754% | 82.8858% | 64.5374% | 99.9703% |
| CN([C@@H]1CCc2c(CC(=O)O)c3cc(S(C)(=O)=O)ccc3n2C1)S(=O)(=O)c1ccc(F)cc1 [CRTH2-negative-control] | 78.3965% | 74.5251% | 107.65% | 94.275% | 107.561% | 126.69% |
| CCCS(=O)(=O)c1nc(NC2CC2)cc(-c2ccc3c(ccn3C3CC(C)(C)NC(C)(C)C3)c2)n1 | 80.022% and 93.4216% | 88.9327% and 142.491% | 124.727% and 116.36% | 92.6394% and 115.077% | 91.7549% and 133.424% | 94.2313% and 119.463% |
| OCCn1cc(-c2cnc3nnn(Cc4ccc5ncccc5c4)c3n2)cn1 [PF-04217903] | 88.0795% | 107.387% | 55.9796% | 102.526% | 122.103% | 97.2338% |
| Cl.O=C([C@@H](Cc1cccc(C(F)(F)F)c1)NS(=O)(=O)c1cc(F)c2c(c1)CCNC2)N1CCCC1 | 84.043% | 115.078% | 117.922% | 108.808% | 153.218% | 150.248% |
| CC(C)N(CCCNC(=O)Nc1ccc(C(C)(C)C)cc1)C[C@H]1O[C@@H](n2cc(Br)c3c(N)ncnc32)[C@H](O)[C@@H]1O | 62.4885% | 97.8527% | 74.0278% | 90.8718% | 59.6009% | 110.156% |
| O=C(c1ccc(C(=O)N2CCC(N3CCCC3)CC2)c(Nc2ccccc2)c1)N1CCC(N2CCCC2)CC1 | 108.091% | 96.0319% | 131.975% | 97.2232% | 130.421% | 96.2949% |
| C[C@H]1CCCN1Cc1nc2cc(NC(=O)c3ccc4cnccc4c3)ccc2[nH]1 | 122.515% | 131.721% | 76.6817% | 109.65% | 98.7446% | 149.477% |
| CN1CCN(Cc2ccc(Nc3ncc(Cl)c(Nc4ccccc4S(=O)(=O)N(C)C)n3)cc2)CC1 [DUBERMATINIB] | 0.5937% | 0.7151% | 1% | 1.414% | 1.051% | 16.1981% |
| CCOc1ccc(S(=O)(=O)Nc2ccc(Cl)cc2C#Cc2cnc(C(=O)[O-])cc2OC)c2ncccc12.[K+] | 117.764% | 113.31% | 103.028% | 89.48% | 110.493% | 117.362% |
| Cc1cc(CN)cc(C)c1-c1ncn(C)c1-c1ccnc2cc(F)ccc12.Cl | 105.057% | 123.721% | 138.136% | 105.376% | 144.981% | 87.6481% |
| CC(=O)C1=C(C)N(c2cccc(C(F)(F)F)c2)C(=O)N[C@@H]1c1ccc(C#N)nc1 [BAY-678] | 95.8481% | 136.382% | 146.251% | 119.353% | 140.099% | 133.591% |
| C[C@H]1CC(=O)Nc2cc(C(=O)NCCC3CC3)ccc2N1C(=O)N1CC2CC2C1 (some centres undefined) | 115.835% | 132.849% | 144.576% | 93.1136% | 106.68% | 112.87% |
| CCC(=O)N1CCOc2c(cc(-c3ccc(OC)c(OC)c3)cc2OCC2CCCN(C)C2)C1 (centres undefined) | 113.999% | 135.091% | 132.169% | 110.752% | 85.7121% | 123.175% |
| CC(=O)N1CCC(c2ccc(C(=O)NC(=N)N)cc2C(F)(F)F)CC1 [BI 9627] | 118.657% | 157.583% | 100.11% | 107.329% | 96.0735% | 101.417% |
| CC(C)(O)CNc1ncc(-c2ccnc(Nc3ccnc(Cl)c3)n2)c(CC2CC2)n1 | 30.6205% | 168.017% | 84.1319% | 170.669% | 67.8279% | 172.835% |
| CCS(=O)(=O)Nc1ccc(Oc2ccc(F)cc2F)c(-c2cn(C)c(=O)c3[nH]ccc23)c1 [MIVEBRESIB] | 13.1828% | 272.686% | 15.6468% | 169.821% | 5.758% | 64.2458% |

Source: ChEMBL document CHEMBL5608141, “Identification of compartment-specific drug sensitivities in CRC organoid-stroma co-cultures” (2024)
